What was measured:
Assay in all cases: Yeast growth assay, specificity profiling;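 as to EGFR (L858R) growth restoration: Parenthesized + marks a result obtained in a different yeast background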
Type in all cases: cell-based
EGFR (L858R) = target: T1, EGFR (L858R) (Homo sapiens, UniProt P00533, L858R); set-up: key: (+) in a different yeast background; details: in a different yeast background;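 also: Parenthesized + marks a result obtained in a different yeast background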
T1 construct: expressed in transfected cells; host or cells: yeast
Description: Specificity Profiling: Yeast Growth Assay
The yeast growth assay was performed as described in “Method for the identification and/or validation of receptor tyrosine kinase inhibitors” PCT/CH03/00694 (2004/10/24), section “Modes for Carrying out the Invention, Experiment 1 and Experiment 2.
Briefly, yeast cells carrying plasmids with the RTK of interest were grown in glucose containing medium (repressing expression). The cultures were diluted into galactose containing medium, which induces the expression of the kinase. Expression of the kinase inhibits growth of the yeast cells, which allows for positive selection of kinase inhibitors restoring growth of cells. Compounds were titrated at 7 concentrations between 0.2 and 100 μM.
Specificity profiling of compounds, using the yeast growth assay method described above. “−” indicates no growth restoration i.e. no activity against the particular kinase, “+”, “++”, and “+++” indicate activity detected by restoration of growth, classified into three categories of potency according to the maximal level of growth restoration reached and the concentration at which the maximal growth restoration is reached.

EphB2 = target: T2, EphB2 (Homo sapiens, UniProt P29323); set-up: key: “−” indicates no growth restoration i.e. no activity against the particular kinase; “+”, “++”, and “+++” indicate activity detected by restoration of growth, classified into three categories of potency; “+”, “++”, and “+++” indicate activity detected by restoration of growth, classified into three categories of potency; “+”, “++”, and “+++” indicate activity detected by restoration of growth, classified into three categories of potency; details: 7 concentrations between 0.2 and 100 μM
T2 construct: expressed in transfected cells; host or cells: yeast
T2 sequence (P29323 19-1055): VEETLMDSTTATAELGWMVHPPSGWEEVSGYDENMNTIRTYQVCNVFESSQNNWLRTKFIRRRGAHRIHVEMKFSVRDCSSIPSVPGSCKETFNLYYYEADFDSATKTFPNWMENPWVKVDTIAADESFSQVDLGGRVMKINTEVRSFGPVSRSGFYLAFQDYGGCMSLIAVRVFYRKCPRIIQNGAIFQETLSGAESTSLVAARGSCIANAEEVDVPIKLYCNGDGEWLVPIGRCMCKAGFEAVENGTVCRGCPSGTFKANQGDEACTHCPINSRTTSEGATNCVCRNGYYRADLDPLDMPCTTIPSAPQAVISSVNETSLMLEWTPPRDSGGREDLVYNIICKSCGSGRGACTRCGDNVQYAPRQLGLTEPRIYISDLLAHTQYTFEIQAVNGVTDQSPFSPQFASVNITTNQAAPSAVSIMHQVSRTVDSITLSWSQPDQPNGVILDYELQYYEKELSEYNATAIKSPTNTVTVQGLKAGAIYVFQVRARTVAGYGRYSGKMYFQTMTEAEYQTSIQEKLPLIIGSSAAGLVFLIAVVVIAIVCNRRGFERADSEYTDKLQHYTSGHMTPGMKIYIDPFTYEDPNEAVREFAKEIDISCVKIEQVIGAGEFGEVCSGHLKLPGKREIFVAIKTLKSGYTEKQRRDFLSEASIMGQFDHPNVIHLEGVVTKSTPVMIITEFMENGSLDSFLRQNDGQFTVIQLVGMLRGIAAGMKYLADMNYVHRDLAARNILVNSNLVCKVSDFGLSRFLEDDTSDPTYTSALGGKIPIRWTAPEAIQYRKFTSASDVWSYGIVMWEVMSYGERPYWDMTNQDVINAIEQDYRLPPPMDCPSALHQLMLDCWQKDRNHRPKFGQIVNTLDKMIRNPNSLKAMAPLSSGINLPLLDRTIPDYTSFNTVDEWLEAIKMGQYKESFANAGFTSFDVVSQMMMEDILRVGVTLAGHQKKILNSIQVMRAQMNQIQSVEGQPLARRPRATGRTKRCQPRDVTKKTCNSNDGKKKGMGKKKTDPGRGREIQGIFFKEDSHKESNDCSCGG
How it was run: (§1)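 Compounds titrated at 7 concentrations spanning 0.2 to 100 μM were tested on yeast whose plasmid-borne RTK, induced by galactose after glucose repression, inhibits growth. Categories −, +, ++, +++ reflect maximal growth recovery and the concentration achieving it.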

EphA2 = target: T3, EphA2 (Homo sapiens, UniProt P29317); set-up: key: “−” indicates no growth restoration i.e. no activity against the particular kinase; “+”, “++”, and “+++” indicate activity detected by restoration of growth, classified into three categories of potency; “+”, “++”, and “+++” indicate activity detected by restoration of growth, classified into three categories of potency; “+”, “++”, and “+++” indicate activity detected by restoration of growth, classified into three categories of potency; details: 7 concentrations between 0.2 and 100 μM
T3 construct: expressed in transfected cells; host or cells: yeast
How it was run: as §1

T3 sequence (P29317 24-976): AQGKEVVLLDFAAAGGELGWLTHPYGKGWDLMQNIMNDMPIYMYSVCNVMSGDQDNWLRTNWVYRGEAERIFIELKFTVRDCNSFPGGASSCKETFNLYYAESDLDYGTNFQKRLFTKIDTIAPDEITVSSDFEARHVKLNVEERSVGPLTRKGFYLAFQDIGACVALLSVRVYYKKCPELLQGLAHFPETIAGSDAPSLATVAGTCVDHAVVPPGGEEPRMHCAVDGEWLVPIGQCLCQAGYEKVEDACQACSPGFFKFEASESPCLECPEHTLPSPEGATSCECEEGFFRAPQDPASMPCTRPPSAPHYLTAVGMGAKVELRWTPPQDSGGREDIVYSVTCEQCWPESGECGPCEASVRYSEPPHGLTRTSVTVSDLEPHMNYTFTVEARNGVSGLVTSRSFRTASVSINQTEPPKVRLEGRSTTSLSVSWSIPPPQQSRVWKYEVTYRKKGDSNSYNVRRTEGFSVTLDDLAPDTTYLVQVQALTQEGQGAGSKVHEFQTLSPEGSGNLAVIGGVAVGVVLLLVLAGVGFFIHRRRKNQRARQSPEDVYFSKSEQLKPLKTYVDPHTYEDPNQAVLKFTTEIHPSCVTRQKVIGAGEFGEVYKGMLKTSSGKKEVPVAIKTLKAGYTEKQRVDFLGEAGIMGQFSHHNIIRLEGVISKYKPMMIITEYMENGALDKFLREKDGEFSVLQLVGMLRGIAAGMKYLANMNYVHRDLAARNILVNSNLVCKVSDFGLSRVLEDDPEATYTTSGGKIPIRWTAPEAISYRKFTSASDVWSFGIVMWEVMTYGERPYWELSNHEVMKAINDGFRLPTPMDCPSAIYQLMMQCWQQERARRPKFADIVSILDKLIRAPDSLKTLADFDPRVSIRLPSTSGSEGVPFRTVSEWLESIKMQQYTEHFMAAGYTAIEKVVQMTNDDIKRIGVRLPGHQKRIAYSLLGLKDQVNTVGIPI

| SMILES | EGFR (L858R) growth restoration (EGFR (L858R)) | EphB2 growth restoration (EphB2) | EphA2 growth restoration (EphA2) |
| --- | --- | --- | --- |
| c1ccc(Nc2c(-c3ccc(N4CCOCC4)cc3)nc3cnccn23)cc1 [compound 38, [2-(4-Morpholin-4-yl-phenyl)-imidazo[1,2-a]pyrazin-3-yl]-phenyl-amine] | (+) | ++ | + |
| Nc1ccc(-c2nc3cnccn3c2Nc2cccc(Cl)c2)cc1 [compound 10, [2-(4-Amino-phenyl)-imidazo[1,2-a]pyrazin-3-yl]-(3-chloro-phenyl)-amine] | (+) | ++ | ++ |
| COc1cccc(-c2nc3c(C)nccn3c2Nc2cccc(Cl)c2)c1 [compound 48, (3-Chloro-phenyl)-[2-(3-methoxy-phenyl)-8-methyl-imidazo[1,2-a]pyrazin-3-yl]-amine] | (+) | +++ | + |

Continued, values first:

| EGFR (L858R) growth restoration (EGFR (L858R)) | EphB2 growth restoration (EphB2) | EphA2 growth restoration (EphA2) | SMILES |
| --- | --- | --- | --- |
| (+) | + | − | Fc1ccc(Nc2c(-c3ccccc3)nc3cnccn23)cc1F [compound 30, (3,4-Difluoro-phenyl)-(2-phenyl-imidazo[1,2-a]pyrazin-3-yl)-amine] |
| (+) | + | − | Fc1cccc(Nc2c(-c3ccccc3)nc3cnccn23)c1 [compound 26, (3-Fluoro-phenyl)-(2-phenyl-imidazo[1,2-a]pyrazin-3-yl)-amine] |

Reference: patent US20070149535A1, “Protein kinase inhibitors” (ONCALIS AG, priority 2004, published 2007)
